In US20130296427A1, “NERAMEXANE FOR THE TREATMENT OR PREVENTION OF TINNITUS RELATED WITH STRESS OR ACUTE HEARING LOSS” (MERZ PHARMA GmbH & CO. KGaA, priority 2011, published 2013):

Tested on: subjects with tinnitus caused by acute hearing loss, stress and other reasons
Test: Two double-blind, randomized, placebo-controlled 17-week studies of neramexane mesylate in tinnitus; change in TBF-12 total score
Format: in vivo, human
Conditions: FAS-LOCF; for Change in the TBF-12 total score from baseline to Week 17/EOT, mean (SD): neramexane mesylate 50 or 75 mg/d, 17 weeks; for LSmean [ner − plac], estimated difference Neramexane − Placebo in change of TBF-12 total score, adjusted for covariates from ANCOVA: Week 17/EOT, negative = superior to placebo
Protocol: The objective was to assess the efficacy of neramexane as a treatment for tinnitus. The primary objectives of these two independent 17 weeks double-blind, randomized placebo-controlled studies were to compare the efficacy, tolerability and safety of neramexane mesylate at two different, weight-adapted dosages (50 or 75 mg/d) with placebo in subjects with tinnitus caused acute hearing loss, stress and other reasons.
In two independent, double-blind, multicenter, randomized, placebo-controlled, parallel-group studies, the efficacy of neramexane in subjects suffering from tinnitus caused by acute hearing loss, stress and other reasons were assessed.
In both studies, subjects were treated for 17 weeks with neramexane or placebo including a four-resp. five-week up-titration period, depending on study drug dose.
Patients with a target daily dose of 50 mg neramexane mesylate (<90 kg body weight) were to reach steady state after four weeks, patients with a target total daily dose of 75 mg neramexane mesylate 90 kg body weight) were to reach steady state after five weeks of treatment. For patients who experienced dose limiting adverse events with the 75 mg dose, the dosage was reduced by switching the patient to 50 mg/day. Patients unable to tolerate a minimum dosage of 50 mg/day discontinued.
Patients' eligibility for the studies was evaluated via a check of inclusion/exclusion criteria. The subject completed a Tinnitus-Beeinträchtigungs-Fragebogen (TBF-12=Tinnitus Handicap Inventory (THI-12)) (i.e., a 12-item modified and validated version (Greimel K V et al., Tinnitus-Beeinträchtigungs-Fragebogen (TBF-12). Manual. Frankfurt am Main: Swets & Zeitlinger B.V.; 2000) of the 25-item Tinnitus Handicap Inventory or THI (Newman C W, et al. Development of the Tinnitus Handicap Inventory. Arch Otolaryngol Head Neck Surg 1996; 122(2): 143-148; Newman C W, et al. Psychometric adequacy of the Tinnitus Handicap Inventory (THI) for evaluating treatment outcome. J Am Acad Audiol 1998; 9(2): 153-160.)). The TBF-12 items can be grouped in 2 factorial scores: an emotional-cognitive and a functional-communicational factor. At Visit 1 patients also completed a Tinnitus Rating Scale (TRS, Likert scores on Tinnitus Loudness, Tinnitus Impact on Life, and Tinnitus Annoyance), and the Hospital Anxiety and Depression Scale Audiology/psychoacoustic measurements were performed unless results from previous examinations performed no more than one year prior to Screening were available.
Neramexane mesylate immediate release tablets (12.5 mg and 25 mg, the manufacture thereof being disclosed in WO 2009/033649, whose respective content is incorporated herein by reference) and matching placebo tablets are administered as film coated tablets.
Primary Outcome • The change in TBF-12 total score from baseline (Visit 2) to the endpoint visit (Visit 7, i.e. Week 17 or end of treatment) was the primary efficacy endpoint in these studies.
All efficacy analyses were performed on the full analysis set (FAS) using the last-observation-carried-forward (LOCF) approach. For sensitivity purposes an analysis of the per-protocol set and of observed cases was performed additionally. All statistical tests used for testing the primary efficacy (confirmatory testing) and secondary efficacy criteria (exploratory), and all other statistical tests used for exploratory analyses were two-sided hypothesis tests performed at the 5% significance level. For all variables standard descriptive statistics were calculated.
Change from baseline (Visit 2) to Week 17 in TBF-12 total score was analyzed using an ANCOVA model with treatment group, gender and country as factors and baseline TBF-12 total score as covariate.

## CC1(C)CC(C)(C)CC(C)(N)C1 [Neramexane, 1-amino-1,3,3,5,5-pentamethylcyclohexane]
Tinnitus caused by acute hearing loss, N=34
  Change in the TBF-12 total score from baseline to Week 17/EOT, mean (SD): 34/−3.1 ± 5.0
Tinnitus caused by acute hearing loss, P-value 0.0162
  LSmean [ner − plac], estimated difference Neramexane − Placebo in change of TBF-12 total score, adjusted for covariates from ANCOVA: −3.9
Tinnitus caused by other reasons, N=323
  Change in the TBF-12 total score from baseline to Week 17/EOT, mean (SD): 323/−2.4 ± 4.1
Tinnitus caused by other reasons, P-value 0.5969
  LSmean [ner − plac], estimated difference Neramexane − Placebo in change of TBF-12 total score, adjusted for covariates from ANCOVA: 0.2
Tinnitus caused by stress, N=41
  Change in the TBF-12 total score from baseline to Week 17/EOT, mean (SD): 41/−3.4 ± 4.2
Tinnitus caused by stress, P-value 0.0094
  LSmean [ner − plac], estimated difference Neramexane − Placebo in change of TBF-12 total score, adjusted for covariates from ANCOVA: −2.3
